Test results from ChEMBL document CHEMBL4396908, “Sulfamates in drug design and discovery: Pre-clinical and clinical investigations” (Eur J Med Chem, 2019).

Legend:
[1] = system: MCF7; test: Antiproliferative activity against human MCF7 cells at 1 uM relative to control; assay type: functional
[2] = species on record: Homo sapiens; test: Selectivity ratio of IC50 for human carbonic anhydrase 1 to IC50 for human carbonic anhydrase 9
[3] = molecular target: Carbonic anhydrase 9 (Homo sapiens, UniProt Q16790); test: Inhibition of human carbonic anhydrase 9
[4] = molecular target: T1, Carbonic anhydrase 2 (Homo sapiens, UniProt P00918); test: Inhibition of human carbonic anhydrase 2
[5] = system: MDA-MB-231; test: Antiproliferative activity against human MDA-MB-231 cells; assay type: functional, cell-based
[6] = system: MCF7; test: Antiproliferative activity against human MCF7 cells; assay type: functional, cell-based
[7] = molecular target: Carbonic anhydrase 4 (Homo sapiens, UniProt P22748); test: Inhibition of human carbonic anhydrase 4
Chain of Carbonic anhydrase 4 (P22748 whole entry): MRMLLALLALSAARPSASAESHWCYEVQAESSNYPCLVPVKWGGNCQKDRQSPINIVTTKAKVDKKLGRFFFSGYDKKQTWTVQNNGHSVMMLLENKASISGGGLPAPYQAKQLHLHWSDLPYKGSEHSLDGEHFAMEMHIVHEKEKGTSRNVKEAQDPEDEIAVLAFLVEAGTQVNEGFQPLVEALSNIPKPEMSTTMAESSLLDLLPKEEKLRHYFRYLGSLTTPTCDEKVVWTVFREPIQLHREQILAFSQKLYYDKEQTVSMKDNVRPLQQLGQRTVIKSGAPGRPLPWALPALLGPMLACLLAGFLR

[8] = molecular target: T2, Steryl-sulfatase (Homo sapiens, UniProt P08842); test: Inhibition of human placental steroid sulfatase expressed in HEK293 cells using [3H] E1S as substrate after 2 hrs by liquid scintillation counting method; assay type: cell-based
T2 sequence (P08842 whole entry): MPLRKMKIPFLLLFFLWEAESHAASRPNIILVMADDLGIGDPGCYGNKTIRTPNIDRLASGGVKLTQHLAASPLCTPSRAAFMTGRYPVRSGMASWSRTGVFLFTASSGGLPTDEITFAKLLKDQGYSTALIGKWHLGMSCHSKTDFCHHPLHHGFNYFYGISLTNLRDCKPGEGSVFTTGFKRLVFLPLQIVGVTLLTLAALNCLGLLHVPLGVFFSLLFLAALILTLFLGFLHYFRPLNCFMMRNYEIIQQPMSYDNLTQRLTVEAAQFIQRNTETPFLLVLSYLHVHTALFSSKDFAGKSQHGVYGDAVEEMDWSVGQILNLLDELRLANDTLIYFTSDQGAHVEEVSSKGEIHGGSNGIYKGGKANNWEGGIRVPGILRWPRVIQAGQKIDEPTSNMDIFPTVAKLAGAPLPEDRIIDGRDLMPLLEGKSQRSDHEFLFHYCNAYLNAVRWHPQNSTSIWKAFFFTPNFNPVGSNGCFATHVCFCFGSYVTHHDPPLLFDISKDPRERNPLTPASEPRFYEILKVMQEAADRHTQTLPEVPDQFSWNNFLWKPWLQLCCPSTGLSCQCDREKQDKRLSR

[9] = molecular target: T2, Steryl-sulfatase; test: Inhibition of steroid sulfatase in human MCF7 cells; assay type: cell-based
[10] = molecular target: T2, Steryl-sulfatase; test: Inhibition of steroid sulfatase derived form human placental microsomes; parameters: species or system Placenta
[11] = molecular target: T2, Steryl-sulfatase; test: Inhibition of human placental steroid sulfatase
[12] = species on record: Rattus norvegicus; test: animal or person; conditions: Wistar, 3 h
[13] = system: Rattus norvegicus; test: In vivo inhibition of aromatase in Wistar rat at 10 mg/kg, po after 3 hrs relative to control; assay type: functional
[14] = system: Rattus norvegicus; test: In vivo inhibition of steroid sulfatase in Wistar rat at 10 mg/kg, po after 3 hrs relative to control; assay type: functional
[15] = molecular target: T2, Steryl-sulfatase; test: Inhibition of steroid sulfatase (unknown origin) expressed in CHO cells; assay type: cell-based
[16] = molecular target: T2, Steryl-sulfatase; test: Inhibition of steroid sulfatase (unknown origin) expressed in human MCF7 cells; assay type: cell-based
[17] = system: MCF7; test: Antitumor activity against human MCF7 cells xenografted in MF-1 nude mouse assessed as tumor growth inhibition at 5 mg/kg, po treated for 4 weeks in presence of 2-deoxy-D-glucose by immunohistochemistry relative to control; assay type: functional; conditions: 672 h, read-out: TGI
[18] = system: MCF7; test: Antiproliferative activity against estrogen receptor-positive human MCF7 cells; assay type: functional, cell-based
[19] = system: MDA-MB-231; test: Antiproliferative activity against estrogen receptor-negative human MDA-MB-231 cells; assay type: functional, cell-based
[20] = molecular target: Acetylcholinesterase (Electrophorus electricus, UniProt O42275); test: Inhibition of electric ee AChE using acetylthiocholine iodide as substrate preincubated for 15 mins followed by substrate addition by Ellman's method
Chain of Acetylcholinesterase (O42275 whole entry): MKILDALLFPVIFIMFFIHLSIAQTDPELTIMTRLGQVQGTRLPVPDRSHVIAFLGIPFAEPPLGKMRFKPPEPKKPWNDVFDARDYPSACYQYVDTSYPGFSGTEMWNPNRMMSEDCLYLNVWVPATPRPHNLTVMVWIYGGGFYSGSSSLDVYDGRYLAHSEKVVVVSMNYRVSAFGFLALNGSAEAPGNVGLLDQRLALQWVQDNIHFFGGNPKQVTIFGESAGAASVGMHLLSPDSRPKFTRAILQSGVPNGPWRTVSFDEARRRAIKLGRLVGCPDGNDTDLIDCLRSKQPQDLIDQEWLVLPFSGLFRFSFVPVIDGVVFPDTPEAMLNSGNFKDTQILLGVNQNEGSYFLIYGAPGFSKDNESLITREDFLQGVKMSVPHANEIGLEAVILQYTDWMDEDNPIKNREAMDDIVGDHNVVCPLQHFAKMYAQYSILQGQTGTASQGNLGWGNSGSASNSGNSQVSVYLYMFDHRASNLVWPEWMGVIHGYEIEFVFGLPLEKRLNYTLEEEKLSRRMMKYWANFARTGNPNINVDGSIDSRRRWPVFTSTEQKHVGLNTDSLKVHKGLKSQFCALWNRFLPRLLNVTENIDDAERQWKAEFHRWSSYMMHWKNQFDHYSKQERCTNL

[21] = molecular target: Carbonic anhydrase 1 (Homo sapiens, UniProt P00915); test: Inhibition of human carbonic anhydrase 1 using p-nitrophenylacetate as substrate after 3 mins
Chain of Carbonic anhydrase 1 (P00915 whole entry): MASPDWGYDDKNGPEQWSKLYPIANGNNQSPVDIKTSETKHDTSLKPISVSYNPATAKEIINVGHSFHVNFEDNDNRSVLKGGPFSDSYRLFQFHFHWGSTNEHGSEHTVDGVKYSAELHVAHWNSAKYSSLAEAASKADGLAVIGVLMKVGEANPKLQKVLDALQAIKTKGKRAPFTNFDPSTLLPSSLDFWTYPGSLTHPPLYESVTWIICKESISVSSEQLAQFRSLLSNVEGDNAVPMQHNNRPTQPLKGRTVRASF

[22] = molecular target: Cholinesterase (Equus caballus, UniProt P81908); test: Inhibition of equine BChE using butyrylthiocholine iodide as substrate preincubated for 15 mins followed by substrate addition by Ellman's method
Chain of Cholinesterase (P81908 whole entry): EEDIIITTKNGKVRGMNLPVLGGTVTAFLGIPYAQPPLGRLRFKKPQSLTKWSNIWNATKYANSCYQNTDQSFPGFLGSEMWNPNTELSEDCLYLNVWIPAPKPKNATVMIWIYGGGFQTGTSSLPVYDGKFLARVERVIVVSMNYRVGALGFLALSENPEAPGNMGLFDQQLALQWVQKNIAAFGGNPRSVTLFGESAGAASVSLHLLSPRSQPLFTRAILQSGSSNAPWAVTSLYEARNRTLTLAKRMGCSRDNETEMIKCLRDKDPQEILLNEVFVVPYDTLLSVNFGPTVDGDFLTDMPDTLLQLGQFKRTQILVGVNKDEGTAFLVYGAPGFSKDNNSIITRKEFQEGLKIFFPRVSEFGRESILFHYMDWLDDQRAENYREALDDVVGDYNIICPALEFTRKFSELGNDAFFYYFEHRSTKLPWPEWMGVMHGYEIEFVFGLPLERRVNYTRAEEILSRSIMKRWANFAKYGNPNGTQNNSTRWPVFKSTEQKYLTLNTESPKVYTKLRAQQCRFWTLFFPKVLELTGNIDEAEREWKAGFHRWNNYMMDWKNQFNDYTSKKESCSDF

[23] = molecular target: T1, Carbonic anhydrase 2; test: Inhibition of human carbonic anhydrase 2 using p-nitrophenylacetate as substrate after 3 mins
[24] = system: Rattus norvegicus; test: In vivo inhibition of steroid sulfatase in Wistar rat assessed as enzyme recovery at 10 mg/kg, sc single dose treated for 3 days measured after 1 week relative to control; assay type: functional; parameters: scale not given: the % may be the effect or the level left
[25] = system: Rattus norvegicus; test: In vivo inhibition of steroid sulfatase in Wistar rat assessed as enzyme recovery at 10 mg/kg, sc single dose treated for 10 days measured after 15 days relative to control; assay type: functional; parameters: scale not given: the % may be the effect or the level left
[26] = molecular target: T2, Steryl-sulfatase; test: Inhibition of steroid sulfatase (unknown origin)
[27] = system: Rattus norvegicus; test: In vivo inhibition of steroid sulfatase in Wistar rat at 10 mg/kg, po relative to control; assay type: functional

COc1cc2c(cc1OS(N)(=O)=O)CC[C@@H]1[C@@H]2CC[C@]2(C)C(=O)CC[C@@H]12
Activity [1]: 52%

NS(=O)(=O)Oc1ccc(/C=C/C(=O)C[C@@H]2O[C@H](CO)[C@@H](O)[C@H](O)[C@H]2O)cc1
Ratio IC50 [2]: 3.38
IC50 [3]: 101 nM

NS(=O)(=O)Oc1ccc(NC2=NC(=O)/C(=C\c3cccc4ccccc34)S2)cc1
Ki [4]: 28.7 to 84.3 nM
Ki [3]: 17.6 to 73.3 nM

CCc1cc2c(cc1OS(N)(=O)=O)CC[C@@H]1[C@@H]2CC[C@]2(C)[C@@H](OS(N)(=O)=O)CC[C@@H]12
IC50 [5]: 80 nM
IC50 [6]: 70 nM

Cc1ccc(/C=C2/SC(Nc3ccc(OS(N)(=O)=O)cc3)=NC2=O)cc1
Ki [4]: 28.7 to 84.3 nM
Ki [3]: 17.6 to 73.3 nM

NS(=O)(=O)Oc1ccc(NC2=NC(=O)/C(=C\c3ccccc3)S2)cc1
Ki [7]: 76.1 nM
Ki [4]: 28.7 to 84.3 nM
Ki [3]: 17.6 to 73.3 nM

CCCCCCC(O)(CCCCc1ccc(OS(N)(=O)=O)cc1)c1ccc(C(C)(C)C)cc1 (centres undefined)
IC50 [8]: 0.4 nM

CCCCCCc1c(C)c2ccc(OS(N)(=O)=O)cc2oc1=O
IC50 [9]: 0.68 nM
IC50 [10]: 32 nM

COc1ccc(/C=C2/SC(Nc3ccc(OS(N)(=O)=O)cc3)=NC2=O)cc1
Ki [4]: 28.7 to 84.3 nM
Ki [3]: 17.6 to 73.3 nM

NS(=O)(=O)Oc1ccc(NC2=NC(=O)/C(=C\c3ccc(C(F)(F)F)cc3)S2)cc1
Ki [4]: 28.7 to 84.3 nM
Ki [3]: 17.6 to 73.3 nM

NS(=O)(=O)Oc1ccc(CCNC(=O)C(F)(F)C(F)(F)C(F)(F)C(F)(F)C(F)(F)C(F)(F)C(F)(F)C(F)(F)C(F)(F)C(F)(F)F)cc1
IC50 [11]: 2180 nM

N#Cc1ccc(N(Cc2ccc3c(Br)c(OS(N)(=O)=O)ccc3c2)n2cnnc2)cc1
IC50 [12]: 205 nM
inhibition in vivo at 10 mg/kg [13]: 93%
inhibition in vivo at 10 mg/kg [14]: 93%

NS(=O)(=O)Oc1ccc2nc(C=C3C4CC5CC(C4)CC3C5)oc2c1
IC50 [15]: 0.15 to 31.8 nM
IC50 [16]: 0.15 to 31.8 nM

Cc1c(Cc2ccccc2)c(=O)oc2cc(OS(N)(=O)=O)ccc12
IC50 [9]: 1 nM
IC50 [10]: 8 nM

COc1cc2c(cc1OS(N)(=O)=O)CC[C@@H]1[C@@H]2CC[C@]2(C)[C@@H](OS(N)(=O)=O)CC[C@@H]12
inhibition in vivo at 5 mg/kg [17]: 76%
IC50 [18]: 250 nM
IC50 [19]: 290 nM

NS(=O)(=O)Oc1ccc(NC2=NC(=O)/C(=C\c3ccc(F)cc3)S2)cc1
Ki [4]: 28.7 to 84.3 nM
Ki [3]: 17.6 to 73.3 nM

CC(C)[C@@H]1CC[C@@H](C)C[C@H]1OS(=O)(=O)NC(c1ccccc1)c1ccccc1
IC50 [20]: 206 nM
IC50 [21]: 44 nM
IC50 [22]: 246 nM
IC50 [23]: 16 nM

C[C@]12CC[C@@H]3c4ccc(OS(N)(=O)=O)cc4CC[C@H]3[C@@H]1CCC2=O [EMATE]
Activity [24]: 10 - 15%
Activity [25]: 30%

NS(=O)(=O)Oc1ccc(NC2=NC(=O)/C(=C\c3ccc(Cl)cc3)S2)cc1
Ki [4]: 28.7 to 84.3 nM
Ki [3]: 17.6 to 73.3 nM

Cc1cc(=O)oc2cc(OS(N)(=O)=O)ccc12
IC50 [26]: 30 nM

NS(=O)(=O)Oc1ccc2ccc(=O)oc2c1
IC50 [11]: 2130 nM

COc1cc(/C=C2/SC(Nc3ccc(OS(N)(=O)=O)cc3)=NC2=O)cc(OC)c1OC
Ki [7]: 42.3 nM
Ki [4]: 28.7 to 84.3 nM
Ki [3]: 17.6 to 73.3 nM

NS(=O)(=O)Oc1ccc2c3c(c(=O)oc2c1)CCCCCC3
IC50 [26]: 1 nM

NS(=O)(=O)Oc1ccc(NC2=NC(=O)/C(=C\c3ccc([N+](=O)[O-])cc3)S2)cc1
Ki [4]: 28.7 to 84.3 nM
Ki [3]: 17.6 to 73.3 nM

N#Cc1ccc(N(Cc2ccc(OS(N)(=O)=O)cc2)n2cnnc2)cc1
inhibition in vivo at 10 mg/kg [27]: > 98%
